Laboratory results as given in the supplement of paper PMC10307832.

Columns and labels:
Assay in all cases: relative viability (nuclei count vs DMSO), 5 days (fraction); higher = more cells survive
[1] = compound: C[C@]1(c2nc3c(C(N)=O)cccc3[nH]2)CCCN1 [Veliparib] + CCNC(=O)c1noc(-c2cc(C(C)C)c(O)cc2O)c1-c1ccc(CN2CCOCC2)cc1 [Luminespib] (partner 0.01 µM)
Method in brief: (§1)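 Nuclei were stained with Hoechst during a one-step fixation (final 0.05% Triton X-100, 1% formaldehyde, 1 ug/ml Hoechst) carried out 5 days after dosing, then counted on 4× images. The cells, lung cancer lines in 1536-well plates, had been dosed by pin tool the day after seeding with one drug alone or a fixed anchor-drug dose plus five library-drug doses (not always all listed) in √10 steps. Relative viability is the nuclei count in treated wells divided by that in vehicle wells, and each value is the median of duplicate plates.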

[2] = compound: C[C@]1(c2nc3c(C(N)=O)cccc3[nH]2)CCCN1 [Veliparib] + Cc1nc(NC(=O)N2CCC[C@H]2C(N)=O)sc1-c1ccnc(C(C)(C)C(F)(F)F)c1 [Alpelisib] (partner 2 µM)
Method in brief: as §1

[3] = compound: COC1=CC=C(C=C1)CN2C=CC3=C2C=C(C=C3)C(=O)NO + N=C(N)NC(=N)NCCc1ccccc1 [Phenformin] (partner 250 µM)
Method in brief: as §1

[4] = compound: COC1=CC=C(C=C1)CN2C=CC3=C2C=C(C=C3)C(=O)NO + CC1(C)CCC(c2ccc(Cl)cc2)=C(CN2CCN(c3ccc(C(=O)NS(=O)(=O)c4ccc(N[C@H](CCN5CCOCC5)CSc5ccccc5)c(S(=O)(=O)C(F)(F)F)c4)cc3)CC2)C1 [Navitoclax] (partner 0.5 µM)
Method in brief: as §1

Cell Line | relative viability ([1]; first compound 0.02 µM) | relative viability ([1]; first compound 0.06325 µM) | relative viability ([1]; first compound 0.2 µM) | relative viability ([1]; first compound 0.6325 µM) | relative viability ([1]; first compound 2 µM) | relative viability ([2]; first compound 0.02 µM) | relative viability ([2]; first compound 0.06325 µM) | relative viability ([2]; first compound 0.2 µM) | relative viability ([2]; first compound 0.6325 µM) | relative viability ([2]; first compound 2 µM) | relative viability ([3]; first compound 0.08 µM) | relative viability ([3]; first compound 0.253 µM) | relative viability ([3]; first compound 0.8 µM) | relative viability ([3]; first compound 2.53 µM) | relative viability ([3]; first compound 8 µM) | relative viability ([4]; first compound 0.08 µM) | relative viability ([4]; first compound 0.253 µM) | relative viability ([4]; first compound 0.8 µM) | relative viability ([4]; first compound 2.53 µM) | relative viability ([4]; first compound 8 µM)
201T | 0.995 | 1.11 | 1.07 | 1.1 | 1.11 | 1.02 | 1.02 | 1.02 | 1.01 | 0.973 | 0.487 | 0.466 | 0.453 | 0.431 | 0.35 | 1.19 | 1.24 | 1.22 | 1.23 | 1.19
A549 |  |  |  |  |  | 0.697 | 0.686 | 0.75 | 0.688 | 0.796 |  | 0.159 | 0.173 | 0.188 | 0.0674 | 1.22 | 1.26 | 1.25 | 1.15 | 1.07
A-427 |  | 0.908 | 0.72 | 1.12 | 0.931 | 1.1 | 1.01 | 1.06 | 1.06 | 1.14 |  | 0.344 | 0.357 | 0.314 | 0.235 |  | 1 | 1.02 | 1.04 | 0.806
ABC-1 |  | 0.543 | 0.377 | 0.422 | 0.524 |  | 0.809 | 1.1 | 1.05 | 0.894 |  | 0.216 | 0.246 | 0.296 | 0.234 |  |  |  |  | 
BEN | 0.161 | 0.188 | 0.308 | 0.557 | 0.148 | 0.925 | 0.982 | 1.2 | 0.992 | 1.05 | 0.267 | 0.224 | 0.263 | 0.269 | 0.259 | 0.0556 | 0.0746 | 0.0683 | 0.156 | 0.0729
CAL-12T | 0.348 | 0.147 | 0.522 | 0.266 | 0.155 | 1.23 | 1.05 | 1.4 | 1.12 | 1.24 | 0.643 | 0.563 | 0.589 | 0.581 | 0.493 | 0.964 | 1.29 | 1.25 | 1.24 | 1.23
COR-L23 | 0.696 | 0.523 | 0.558 | 0.538 | 0.433 | 0.784 | 0.733 | 0.874 | 0.597 | 0.786 | 0.369 | 0.441 | 0.437 | 0.447 | 0.422 | 0.77 | 0.945 | 1.04 | 1.11 | 1.01
COR-L 105 | 0.794 | 0.743 | 0.831 | 0.59 | 0.851 | 1.12 | 1.1 | 1.09 | 0.862 | 1.11 | 0.383 | 0.492 | 0.335 | 0.34 | 0.271 |  | 1.15 | 0.844 | 0.851 | 0.551
Calu-6 |  |  |  |  |  | 1.15 | 0.909 | 1.01 | 0.988 | 1.02 |  |  |  |  |  | 0.809 | 0.84 | 0.805 | 0.828 | 0.698
ChaGo-K-1 | 0.44 | 0.655 | 0.648 | 0.525 | 0.596 |  |  |  |  |  |  | 0.539 | 0.484 | 0.438 | 0.374 |  | 0.932 | 1.13 | 0.911 | 0.887
EBC-1 |  |  |  |  |  | 0.882 | 0.77 | 0.849 | 0.654 | 0.858 |  |  |  |  |  | 0.399 | 0.406 | 0.378 | 0.304 | 0.313
EKVX | 0.82 | 0.835 | 0.89 | 0.812 | 0.827 | 0.784 | 0.867 | 0.85 | 0.837 | 0.902 | 0.192 | 0.239 | 0.264 | 0.225 | 0.219 | 0.934 | 1 | 0.968 | 0.988 | 0.952
EMC-BAC-2 | 1.24 | 1.09 | 1.28 | 1.12 | 1.21 | 0.783 | 0.746 | 0.74 | 0.682 | 0.739 | 0.367 | 0.543 | 0.422 | 0.526 | 0.449 | 0.993 | 1.21 | 1.16 | 1.21 | 1.15
EPLC-272H | 0.264 | 0.526 | 0.485 | 0.0856 | 0.179 |  | 0.951 | 1.1 | 0.901 | 0.924 | 0.265 |  | 0.329 | 0.318 | 0.333 | 0.7 | 1.06 | 1.13 | 1.05 | 1.18
H3255 | 0.698 | 0.717 | 0.778 | 0.894 | 0.813 | 0.656 | 0.841 | 0.679 | 0.522 | 0.701 | 0.334 | 0.39 | 0.347 | 0.353 | 0.359 | 0.574 | 0.501 | 0.503 | 0.541 | 0.46
HARA | 0.82 | 0.778 | 0.782 | 0.639 | 0.416 | 0.943 | 0.769 | 0.921 | 0.827 | 0.822 |  | 0.455 | 0.511 | 0.43 | 0.317 | 0.479 | 1.1 | 1.13 | 1.17 | 1.14
HCC-15 | 0.302 | 0.314 | 0.252 | 0.191 | 0.334 | 0.842 | 0.905 | 0.863 | 0.839 | 0.902 | 0.344 | 0.515 | 0.486 | 0.483 | 0.408 | 0.605 | 0.726 | 0.717 | 0.741 | 0.675
HCC-44 | 1.09 |  | 1.12 | 0.917 | 0.985 | 0.807 | 0.648 | 0.844 | 0.762 | 0.803 | 0.166 | 0.231 | 0.185 | 0.228 | 0.16 | 0.891 | 0.976 | 0.872 | 0.883 | 0.989
HCC-78 |  |  |  |  |  | 0.455 | 0.406 | 0.387 | 0.36 | 0.322 | 0.62 | 0.63 | 0.718 | 0.818 | 0.65 |  | 0.718 | 0.856 | 0.872 | 0.709
